According to patent US20060128727A1, “Fungicidal mixtures based on a triazolopyrimidine derivative” (priority 2003, published 2006):

Test system: Plasmopara viticola
Assay: Activity against peronospora of grapevines caused by Plasmopara viticola (protective spray test on potted vines)
Assay type: in vivo
Conditions: individual active compound, vines cultivar Riesling
Protocol: The active compounds, separately or jointly, were prepared as a stock solution comprising 0.25% by weight of active compound in acetone or DMSO. 1% by weight of the emulsifier Uniperol® EL (wetting agent having emulsifying and dispersant action based on ethoxylated alkylphenols) was added to this solution, and the mixture was diluted with water to the desired concentration. USE EXAMPLE
Leaves of potted vines of the cultivar “Riesling” were sprayed to runoff point with an aqueous suspension having the concentration of active compound stated below. The next day, the undersides of the leaves were inoculated with an aqueous zoospore suspension of Plasmopara viticola. The grapevines were then initially placed in a water-vapor-saturated chamber at 24° C. for 48 hours and then in a greenhouse at 20-30° C. for 5 days. After this period of time, the plants were again placed in a humid chamber for 16 hours to promote sporangiophore eruption. The extent of the development of the disease on the undersides of the leaves was then determined visually.
The visually determined percentages of infected leaf areas were converted into efficacies in % of the untreated control:
The efficacy (E) is calculated as follows using Abbot's formula: E=(1−α/β)·100 • α corresponds to the fungicidal infection of the treated plants in % and • β corresponds to the fungicidal infection of the untreated (control) plants in %
An efficacy of 0 means that the infection level of the treated plants corresponds to that of the untreated control plants; an efficacy of 100 means that the treated plants were not infected.
The expected efficacies of mixtures of active compounds were determined using Colby's formula (Colby, S. R. “Calculating synergistic and antagonistic responses of herbicide combinations”, Weeds, 15, 20-22, 1967) and compared with the observed efficacies.
Colby's Formula: E=x+y−x·y/100 • E expected efficacy, expressed in % of the untreated control, when using the mixture of the active compounds A and B at the concentrations a and b • x efficacy, expressed in % of the untreated control, when using the active compound A at the concentration a • y efficacy, expressed in % of the untreated control, when using the active compound B at the concentration b

Structure (SMILES)	Efficacy in % of the untreated control (4 ppm in the spray liquor) [%]	Efficacy in % of the untreated control (1 ppm in the spray liquor) [%]	Efficacy in % of the untreated control (63 ppm in the spray liquor) [%]
CC1CCN(c2c(-c3c(F)cc(F)cc3F)c(Cl)nc3ncnn23)CC1 [I, 5-chloro-7-(4-methylpiperidin-1-yl)-6-(2,4,6-trifluorophenyl)-[1,2,4]triazolo[1,5-a]pyrimidine]	56	–	–
CC1CCN(c2c(-c3c(F)cccc3Cl)c(Cl)nc3ncnn23)CC1 [Comparison A]	0	–	–
Cc1cc(C2CC2)nc(Nc2ccccc2)n1 [II-2, (4-cyclopropyl-6-methylpyrimidin-2-yl)phenylamine]	0	0	0
C[C@H](Nc1c(-c2c(F)cc(F)cc2F)c(Cl)nc2ncnn12)C(F)(F)F [Comparison B]	11	–	–
Cc1cc(C)nc(Nc2ccccc2)n1 [II-1, (4,6-dimethylpyrimidin-2-yl)phenylamine]	0	0	0
CC#Cc1cc(C)nc(Nc2ccccc2)n1 [II-3, (4-methyl-6-prop-1-ynylpyrimidin-2-yl)phenylamine]	0	0	0
